Drawing on patent US20250051347A1, “BIFUNCTIONAL CHIMERIC HETEROCYCLIC COMPOUND AND USE THEREOF AS ANDROGEN RECEPTOR DEGRADER” (Hinova Pharmaceuticals, Inc., priority 2021, published 2025), this text covers DC50 for 22 compounds.

The first assay concerns the target T1, androgen receptor (AR) splicing variant AR-v7 (Homo sapiens, UniProt P10275).
T1 construct: The degradation activity of compounds on AR-v7 in 22RV1 cells; host or cells: 22RV1 cells
T1 sequence (P10275 1-644 isoform P10275-3): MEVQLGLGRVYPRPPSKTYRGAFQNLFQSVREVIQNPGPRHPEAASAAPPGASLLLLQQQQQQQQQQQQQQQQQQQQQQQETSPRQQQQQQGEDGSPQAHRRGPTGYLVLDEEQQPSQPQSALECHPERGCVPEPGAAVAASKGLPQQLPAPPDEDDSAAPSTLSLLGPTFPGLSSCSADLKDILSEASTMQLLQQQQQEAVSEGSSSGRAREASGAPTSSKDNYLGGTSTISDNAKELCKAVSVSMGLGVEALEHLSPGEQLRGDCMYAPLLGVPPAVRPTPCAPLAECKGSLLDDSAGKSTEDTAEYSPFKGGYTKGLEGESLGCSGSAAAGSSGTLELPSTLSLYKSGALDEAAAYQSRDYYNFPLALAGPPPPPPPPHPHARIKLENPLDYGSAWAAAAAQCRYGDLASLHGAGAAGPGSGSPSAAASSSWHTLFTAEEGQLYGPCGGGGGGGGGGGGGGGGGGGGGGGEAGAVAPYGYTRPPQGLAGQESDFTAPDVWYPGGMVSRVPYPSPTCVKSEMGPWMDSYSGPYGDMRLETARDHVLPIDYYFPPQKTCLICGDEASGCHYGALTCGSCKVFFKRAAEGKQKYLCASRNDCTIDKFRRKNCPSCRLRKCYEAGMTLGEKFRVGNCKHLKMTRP
The assay is described as follows: Degradation activity on androgen receptor splicing variant AR-v7 in 22RV1 cells (ELISA). It counts as cell-based. Conditions: AR-v7 degradation in 22RV1 cells, 48 h, class symbols.
Compound `C[C@@H]1CN(c2nccc(COc3ccc(C(C)(C)c4ccc(O[C@H]5C[C@@H](Nc6ccc7c(c6)C(=O)N(C6CCC(=O)NC6=O)C7=O)C5)cc4)cc3)n2)C[C@H](C)N1` (stereo partly shown) [Example 433, 5-(((1s,3s)-3-(4-(2-(4-((2-((3s,5r)-3,5-dimethylpiperazin-1-yl)pyrimidin-4-yl)methoxy)phenyl)propan-2-yl)phenoxy)cyclobutyl)amino)-2-(2,6-dioxopiperidin-3-yl)isoindolin-1,3-dione] came in with a DC50 of 11 to 100 nM.

The compound `CC(C)(c1ccc(OCc2ccnc(N3CC4(COC4)C3)n2)cc1)c1ccc(OC2CCCC[C@H]2Nc2ccc3c(c2)C(=O)N(C2CCC(=O)NC2=O)C3=O)cc1` (stereo partly shown) [Example 152] came in with a 50% degradation concentration (DC50) of 1000 to 5000 nM.

`CC(C)(c1ccc(OCCCNc2ccc3c(c2)C(=O)N(C2CCC(=O)NC2=O)C3=O)cc1)c1ccc(OCc2nc(C(N)=O)co2)cc1` (stereo not shown) [Example 388] yielded a DC50 of 11 to 100 nM.

`CC(=O)c1nccc(COc2ccc(C(C)(C)c3ccc(N4CCC5(CCN(c6ccc7c(c6)C(=O)N(C6CCC(=O)NC6=O)C7=O)C5)C4)cc3)cc2)n1` (stereo not shown) [Example 560] registered a DC50 of 1000 to 5000 nM.

Turning to `CC(C)(c1ccc(OCc2nc(N3CC4(COC4)C3)ncc2Cl)cc1)c1ccc(O[C@H]2C[C@H](Nc3ccc4c(c3)C(=O)N(C3CCC(=O)NC3=O)C4=O)C2)cc1` (stereo partly shown) [Example 202, 5-((1r,3r)-3-(4-(2-(4-((5-chloro-2-(2-oxa-6-azaspiro[3.3]heptan-6-yl)pyrimidin-4-methoxy)phenyl)propan-2-yl)phenoxy)cyclobutyl)amino)-2-(2,6-dioxopiperidin-3-yl)isoindolin-1,3-dione], the DC50 lay in the range of 11 to 100 nM.

The compound `CC(C)(c1ccc(OCc2ccnc(N3CC4(CCNCC4)C3)n2)cc1)c1ccc(O[C@H]2C[C@@H](Nc3ccc4c(c3)C(=O)N(C3CCC(=O)NC3=O)C4=O)C2)cc1` (stereo partly shown) [Example 85, 5-(((1s,3s)-3-(4-(2-(4-((2-(2,7-diazaspiro[3.5]nonan-2-yl)pyrimidin-4-yl)methoxy)phenyl)propan-2-yl)phenoxy)cyclobutyl)amino)-2-(2,6-dioxopiperidin-3-yl)isoindolin-1,3-dione] registered a DC50 of 11 to 100 nM.

In turn, `CC(C)(c1ccc(OCc2cccc(-n3cccn3)n2)cc1)c1ccc(O[C@H]2C[C@H](Nc3ccc4c(c3)C(=O)N(C3CCC(=O)NC3=O)C4=O)C2)cc1` (stereo partly shown) [Example 253] registered a DC50 of 11 to 100 nM.

Turning to `CN1C(=O)CCC(N2C(=O)c3ccc(N[C@H]4C[C@H](Oc5ccc(C(C)(C)c6ccc(OCc7ccnc(N8CC9(COC9)C8)n7)cc6)cc5)C4)cc3C2=O)C1=O` (stereo partly shown) [Example 100, 5-((1r,3r)-3-(4-(2-(4-(4-((2-(2-oxa-6-azaspiro[3.3]heptane-6-yl)pyrimidin-4-yl)methoxy)phenyl)propan-2-yl)phenoxy)cyclobutyl)amino)-2-(1-methyl-2,6-dioxopiperidin-3-yl)isoindolin-1,3-dione], the DC50 is 101 to 1000 nM.

Turning to `Cc1nccc(Oc2ccc(C(C)(C)c3ccc(O[C@H]4C[C@@H](Nc5ccc6c(c5)C(=O)N(C5CCC(=O)NC5=O)C6=O)C4)cc3)cc2)n1` (stereo partly shown) [Example 198], the DC50 lay within 11 to 100 nM.

`Cc1nnc(-c2cc(Oc3ccc(C(C)(C)c4ccc(O[C@H]5C[C@H](Nc6ccc7c(c6)C(=O)N(C6CCC(=O)NC6=O)C7=O)C5)cc4)cc3)ncn2)o1` (stereo partly shown) [Example 590] showed a DC50 of 11 to 100 nM.

Compound `Cc1nnc(-c2ccc(Oc3ccc(C(C)(C)c4ccc(O[C@H]5C[C@H](Nc6ccc7c(c6)C(=O)N(C6CCC(=O)NC6=O)C7=O)C5)cc4)cc3)nc2)o1` (stereo partly shown) [Example 216] registered a DC50 of 11 to 100 nM.

Take `CC(C)(c1ccc(Oc2ccc(-n3nccn3)cc2)cc1)c1ccc(O[C@H]2C[C@H](Nc3ccc4c(c3)C(=O)N(C3CCC(=O)NC3=O)C4=O)C2)cc1` (stereo partly shown) [Example 334]: the DC50 lay within 11 to 100 nM.

Compound `CC(=O)c1nccc(COc2ccc(C(C)(C)c3ccc(OC4CCC5(C4)CN(c4ccc6c(c4)C(=O)N(C4CCC(=O)NC4=O)C6=O)C5)cc3)cc2)n1` (stereo not shown) [Example 490] had a 50% degradation concentration (DC50) of 101 to 1000 nM.

`CC(C)(c1ccc(OCc2ccnc(N3CC4(COC4)C3)n2)cc1)c1ccc(OC2CCC[C@@H](Nc3ccc4c(c3)C(=O)N(C3CCC(=O)NC3=O)C4=O)C2)cc1` (stereo in doubt) [Example 493, 5-((3-(4-(2-(4-((2-(2-oxa-6-azaspiro[3.3]heptan-6-yl)pyrimidin-4-yl)methoxy)phenyl)propan-2-yl)phenoxy)cyclohexyl)amino)-2-(2,6-dioxopiperidin-3-yl)isoindolin-1,3-dione]: the DC50 fell in the range of 101 to 1000 nM.

The compound `CC(C)(c1ccc(Oc2ncc(I)cn2)cc1)c1ccc(O[C@H]2C[C@@H](Nc3ccc4c(c3)C(=O)N(C3CCC(=O)NC3=O)C4=O)C2)cc1` (stereo partly shown) [Example 316] yielded a DC50 of 11 to 100 nM.

The compound `CC(C)(c1ccc(Oc2cnc(C#N)cn2)cc1)c1ccc(O[C@H]2C[C@H](Nc3ccc4c(c3)C(=O)N(C3CCC(=O)NC3=O)C4=O)C2)cc1` (stereo partly shown) [Example 594, 5-(4-(2-(4-((1r,3r)-3-((2-(2,6-dioxopiperidin-3-yl)-1,3-dioxoisoindolin-5-yl)amino)cyclobutyloxy)phenyl)propan-2-yl)phenoxy)pyrazin-2-nitrile] had a DC50 of 11 to 100 nM.

Consider `CC(C)(c1ccc(OCc2ccnc(-c3cncs3)n2)cc1)c1ccc(O[C@H]2C[C@H](Nc3ccc4c(c3)C(=O)N(C3CCC(=O)NC3=O)C4=O)C2)cc1` (stereo partly shown) [Example 272], for which the DC50 is 11 to 100 nM.

`CC(C)(c1ccc(OCCCCOCCCCNc2ccc3c(c2)C(=O)N(C2CCC(=O)NC2=O)C3=O)cc1)c1ccc(OCc2ccnc(NS(C)(=O)=O)n2)cc1` (stereo not shown) [Example 54, N-(4-((4-(2-(4-(4-(4-((2-(2,6-dioxopiperidin-3-yl)-1,3-dioxoisoindolin-5-yl)amino)butoxy)butoxy)phenyl)isopropan-2-yl)phenoxy)methyl)pyrimidin-2-yl)methanesulfonamide] returned a DC50 of 101 to 1000 nM.

`Cc1nc(-c2ncc(Oc3ccc(C(C)(C)c4ccc(O[C@H]5C[C@H](Nc6ccc7c(c6)C(=O)N(C6CCC(=O)NC6=O)C7=O)C5)cc4)cc3)cc2C(F)(F)F)no1` (stereo partly shown) [Example 211] showed a DC50 of 11 to 100 nM.

The same assay, now with this note: AR-v7 degradation in 22RV1 cells, 48 h, numeric values.
As for `CC(=O)c1nccc(COc2ccc(C(C)(C)c3ccc(OCC4CCN(c5ccc6c(c5)C(=O)N(C5CCC(=O)NC5=O)C6=O)C4)cc3)cc2)n1` (stereo not shown) [Example 302, 5-(3-((4-(2-(4-((2-acetylpyrimidin-4-yl)methoxy)phenyl)propan-2-yl)phenoxy)methyl)pyrrolidin-1-yl)-2-(2,6-dioxopiperidin-3-yl)isoindolin-1,3-dione], the DC50 was at least 10000 nM.

`CC(C)(c1ccc(OCCCCCCCCOCCCCNc2cccc3c2C(=O)N(C2CCC(=O)NC2=O)C3=O)cc1)c1ccc(OCc2ccnc(NS(C)(=O)=O)n2)cc1` (stereo not shown) [Example 21, N-(4-((4-(2-(4-((8-(4-((2-(2,6-dioxopiperidin-3-yl)-1,3-dioxoisoindolin-4-yl)amino)butoxy)octyl)oxy)phenyl)propan-2-yl)phenoxy)methyl)pyrimidin-2-yl)methanesulfonamide]: half-maximal degradation (DC50) was put at 5770 nM.

As for `CC(C)(c1ccc(OCc2ccnc(NS(C)(=O)=O)n2)cc1)c1ccc(OC2CCN(CCCCCOCCCCNc3ccc4c(c3)C(=O)N(C3CCC(=O)NC3=O)C4=O)CC2)cc1` (stereo not shown) [Example 15], the DC50 is above 10000 nM.
